Measured values published in US7439251B2, “Methods and compositions for treatment of central and peripheral nervous system disorders and novel compounds useful therefor” (Israel Institute for Biological Research, priority 2002, dated 2008).
“Also recorded” adds a separate entry of the source.

Columns and labels:
[1] = Cardiac electrophysiology and haemodynamics in instrumented awake dogs; type: in vivo, Beagle dog; settings: 5 mg/kg orally, 4 hours
Experimental: • 1. Astemizole (human ether-a-go-go related gene (HERG) Channel) Binding Assay. […] Isolated Guinea Pig Right Atrium (atrial fibrillation). […] Effects of AF292 (dose 5 mg/kg orally) on cardiac electrophysiological, cardio-haemodynamic in instrumented, awake dogs. Healthy trained and chronically instrumented female Beagle dogs of varying age and ranging in body weight from 9.4 to 12 kg, were used for recording of the cardiovascular parameters: heart rate, diastolic and systolic blood pressure, pressure rate product, LV dp/dt max, LV dp/dt max/pd, LV dp/dt min, cardiac output, stroke volume, systemic vascular resistance and the ECG parameters (PQ-, QRS-, QT-, QTcBazett—(QTcB), QTcFridericia—(QTcF) and QTcVan de Water—(QTcVdW) interval duration and QT-dispersion. During the last 18 hours prior to the experiments, the dogs had no access to food. Water was available ad libitum. At the beginning of each experiment, control values of the various parameters were recorded for at least 30 min. Thereafter, 5 mg/kg of AF292 (n=4) or the corresponding volume of the solvent (n=4) was administered orally by gavage. The various haemodynamic parameters were recorded continuously for 4 hours thereafter.

[2] = CNS safety, general observation and Irwin test in rats; type: in vivo, rat
Experimental: AF292 was evaluated in rodents for possible effects on general behavior and other […] related pharmacological effects.

[3] = Passive avoidance in trihexyphenidyl treated rats; type: in vivo, rat; settings: for Trihexyphenidyl-rats-Passive avoidance, effect: AF292 0.03, 0.05, 0.1, 0.3, 0.5 mg/kg p.o., AF267B 0.5, 1, 5; for Trihexyphenidyl-rats-Passive avoidance, MED: p.o.
Description: Trihexyphenidyl is a selective M1 muscarinic antagonist that crosses the blood brain barrier and induces memory and learning impairments (Bymaster et al. J Pharmacol Exp Ther 267: 16-24, 1993. Roldan et al Neurosci. Lett. 230: 93-96, 1997; Kimura et al Brain Res. 834: 6-12, 1999).
Naive Wistar rats were used in the experiments below. The passive avoidance (PA) task is comprised of training (acquisition) phase and a retention phase. In the training procedure each rat was individually placed in the small illuminated compartment and after 60 sec. of familiarization/adaptation, the door to the large compartment was opened and the latency to enter was measured (Initial Latency). Immediately following entry into the dark compartment, the door was closed and inescapable foot shock (0.6 mA for 3 sec) was delivered through the grid floor. A cutoff point of 180 sec was used for initial latency. […] After the acquisition trial the rat was returned to its home cage. Retention of the passive avoidance task was measured 24 h later, by again placing the rat in the light compartment and after a 60 sec adaptation interval, the door was opened and the latency to renter the dark compartment was measured. A cutoff point of 300 sec was used for retention latency.

[4] = tested on: Human α-glycoprotein (AGP); assay: Protein binding, human α-glycoprotein; type: in vitro ADME; settings: 10 μM
Experimental: Protein binding studies were carried out in human plasma, α1-glycoprotein, human serum […] (HSA), and Dulbecco's Phosphate Buffered Saline (PBS). AF292 was added to a final concentration of 10 μM. […] (μM) and in human α-glycoprotein (AGP), (see Table 1).

human M5 receptor = target: T1, human M5 receptor (Homo sapiens, UniProt P08912); assay: Arachidonic acid (AA) release, human M5; type: cell-based
T1 construct: expressed in transfected cells
T1 sequence (P08912 whole entry): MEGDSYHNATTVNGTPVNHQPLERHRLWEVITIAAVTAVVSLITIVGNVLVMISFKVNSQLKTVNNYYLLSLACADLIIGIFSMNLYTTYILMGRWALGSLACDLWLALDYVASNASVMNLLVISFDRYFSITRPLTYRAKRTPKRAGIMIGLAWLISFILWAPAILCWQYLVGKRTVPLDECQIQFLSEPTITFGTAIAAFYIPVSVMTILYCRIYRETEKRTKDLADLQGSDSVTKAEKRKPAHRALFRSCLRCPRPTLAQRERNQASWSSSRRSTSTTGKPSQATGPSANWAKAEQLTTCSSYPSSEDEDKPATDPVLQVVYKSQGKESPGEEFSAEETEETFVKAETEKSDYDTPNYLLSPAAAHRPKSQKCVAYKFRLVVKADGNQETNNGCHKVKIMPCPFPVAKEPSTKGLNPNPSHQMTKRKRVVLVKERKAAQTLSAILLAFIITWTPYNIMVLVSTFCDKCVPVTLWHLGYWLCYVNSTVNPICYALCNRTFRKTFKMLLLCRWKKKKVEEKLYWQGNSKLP

[5] = Plasma levels of AF267B and its metabolite AF292 in dogs given AF267B (single dose and 13 weeks); type: in vivo, Beagle dog
Description: Internal Standard (AF261): 2-Methyl-8-methyl-1-thia-4,8-diaza-spiro[4.5]decan-3-one; MW 200. The analytical plasma samples originate from the in-life part of this study.

rat M1 mAChR = rat M1 mAChR (Rattus norvegicus, UniProt P08482); assay: PI turnover, rat M1 mAChR; type: cell-based
rat M1 mAChR, sequence (P08482 whole entry): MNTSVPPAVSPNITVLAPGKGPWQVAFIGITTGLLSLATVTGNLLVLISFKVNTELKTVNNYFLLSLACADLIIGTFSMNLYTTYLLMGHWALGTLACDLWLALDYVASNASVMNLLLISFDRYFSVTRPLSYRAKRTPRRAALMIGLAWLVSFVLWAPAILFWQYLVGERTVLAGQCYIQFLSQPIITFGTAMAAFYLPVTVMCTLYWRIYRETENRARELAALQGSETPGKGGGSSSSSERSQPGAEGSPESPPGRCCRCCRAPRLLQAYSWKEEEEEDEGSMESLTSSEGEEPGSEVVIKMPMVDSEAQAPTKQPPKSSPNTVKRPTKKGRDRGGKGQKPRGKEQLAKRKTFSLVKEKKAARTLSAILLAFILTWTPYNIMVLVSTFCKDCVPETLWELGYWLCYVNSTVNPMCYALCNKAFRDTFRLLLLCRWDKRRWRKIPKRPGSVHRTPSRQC

[6] = tested on: Adrenergic α1A, α1B, α2A, α2B, α2C, β1, β2; BZD peripheral; Clozapine; Dopamine D1, D2, D3; GABA A; Glutamate sites; Glycine; Histamine H1-H3; Nicotinic …; assay: Selectivity binding panel for AF267B
APPs secretion = APPs secretion in rat primary hippocampal, cortical and spinal cord cultures; type: cell-based; settings: 100 μM, 1 h
[7] = target: muscarinic receptors (QNB, rat cerebellar membranes) (Rattus norvegicus, UniProt P10980); settings: read-out: QNB binding, Ki
muscarinic receptors (QNB, rat cerebellar membranes), sequence (P10980 whole entry): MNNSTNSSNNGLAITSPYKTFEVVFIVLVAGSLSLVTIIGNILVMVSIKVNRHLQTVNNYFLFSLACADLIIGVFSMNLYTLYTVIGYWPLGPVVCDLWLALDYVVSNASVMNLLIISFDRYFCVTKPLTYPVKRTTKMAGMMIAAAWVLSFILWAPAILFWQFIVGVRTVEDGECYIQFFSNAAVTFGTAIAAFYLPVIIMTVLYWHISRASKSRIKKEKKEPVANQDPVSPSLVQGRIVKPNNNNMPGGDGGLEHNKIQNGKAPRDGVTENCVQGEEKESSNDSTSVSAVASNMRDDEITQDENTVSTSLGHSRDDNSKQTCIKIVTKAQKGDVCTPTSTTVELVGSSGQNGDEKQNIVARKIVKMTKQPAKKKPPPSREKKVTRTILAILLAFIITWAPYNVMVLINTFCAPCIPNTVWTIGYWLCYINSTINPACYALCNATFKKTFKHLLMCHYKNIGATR

[8] = pKa and free base fraction at CSF pH; settings: pH 7.35 (CSF), calculated from pKa
Experimental: For such compounds at the relevant pH of 7.35, only 2.2% are in non-ionized form. […] This calculation was based on the brain weight (2 gr) vs. total plasma volume (14 ml).

[9] = Social memory (olfactory recognition) in naive rats; type: in vivo, rat; settings: 0.5, 1 and 5 mg/kg p.o., vs placebo, dose-dependent
Experimental: Animals were kept at 21° C.±1, with an inverse light-dark cycle (light on from 2:00 P.M. to 2:00 A.M.). The sessions were conducted 7 hr into the dark part of the light/dark cycle, under red illumination. […] The time spent by the adult rat in investigating the juvenile rat was recorded. […] Thus under the influence of a purported memory enhancing drug, the time spent in investigating the same juvenile is expected to be reduced. […] Any reduction in social exploration of this different juvenile is thus considered as reflecting a nonspecific effect of the drug (i.e., not memory related). On no occasion was a subject tested twice with the same juvenile stimulus animal, nor was a juvenile used more than once in a 48-hr period. […] Time spent in social investigation of stimulus juvenile rat was measured (in sec) and then expressed for each animal as the ratio of the second exposure to the first exposure (Ratio of Investigation Duration (RID)). […] Analysis for repeated measurement was made by a 3-way ANOVA and post hoc comparisons were made by simple main effects contrasts analysis.

[10] = tested on: cortical and hippocampal cell culture; assay: Protection against NMDA-induced cell death in primary rat brain cultures; settings: for neuroprotective potency against 200 μM NMDA, compared with 20 μM MK801: 100 μM agonist; for prevention of NMDA-induced cell death: 20-24 hrs
[11] = Chronic oral toxicity up to 13 weeks, dog
[12] = dogs, after 13 weeks daily AF267B 1.5, 3, 6 mg/kg po
[13] = female dogs, 13 weeks AF267B 1.5, 3, 6 mg/kg p.o.
[14] = female dogs, single dose (1×) of AF267B 1.5, 3, 6 mg/kg p.o.
[15] = male dogs, 13 weeks AF267B 1.5, 3, 6 mg/kg p.o.
[16] = male dogs, single dose (1×) of AF267B 1.5, 3, 6 mg/kg p.o.

SMILES: CC[C@@H]1SC2(CCNCC2)NC1=O [AF292, (S)-2-Ethyl-1-thia-4,8-diaza-spiro[4.5]decan-3-one]
- hemodynamic or ECG parameters [1]: no statistically significant and relevant effect
- physical or behavioral signs ([2]; rats, 1, 10, 30, 60, or 100 mg/kg orally): No significant physical or behavioral signs
- Trihexyphenidyl-rats-Passive avoidance, effect [3]: positive effects
- Trihexyphenidyl-rats-Passive avoidance, MED [3]: ≤ 0.03 mg/kg
- Trihexyphenidyl-rats-Passive avoidance, duration ([3]; rat, in vivo): LONG DURATION OF ACTION
- potency among the tested agonists ([3]; rat, in vivo): most potent compound among the tested agonists
- Protein Binding [4]: Human α-glycoprotein (AGP) = 0%
- AA release, agonist activity (human M5 receptor): inactive as an agonist; also recorded: PI, AA: M5 mAChR - no effect as agonist
- Cmax vs. the Cmax of AF267B ([5]; dogs): 50-90%
- T1/2 in plasma, times longer than AF267B ([5]; dogs): 3-5 times
- AUC(0-t) [5, 12]: 616 to 2451 ng·h/mL
- Cmax [5, 12]: 136 to 555 ng/mL
- plasma half life [5, 12]: 9 to 20 h
- MRT (area) ([5]; female dogs, 13 weeks): 5.1 to 33.7 h
- AUC(0-inf) [5, 13]: F(13 w): 1866-12723; M(13 w): ng * h/ml
- MRT (area) ([5]; female dogs, single dose (1×)): 8.7 to 18.7 h
- AUC(0-inf) [5, 14]: F (1×): outlier, 3901-4840; M (1×): ng * h/ml
- Elimination half life, Mean T½ (M) ([5]; male dogs): Mean T½ (M) = 6.34 +/− 5.9; h
- MRT (area) ([5]; male dogs, 13 weeks): 5 to 7.8 h
- AUC(0-inf) [5, 15]: 1609 to 4170 ng·h/mL
- MRT (area) ([5]; male dogs, single dose (1×)): 5 to 27.3 h
- AUC(0-inf) [5, 16]: 1142 to 10932 ng·h/mL
- PI turnover vs. CCh (as 100%) (rat M1 mAChR): PI, rat M1 mAChR; 50%

SMILES: CC[C@@H]1SC2(CCN(C)CC2)NC1=O [AF267B, (S)-2-ethyl-8-methyl-1-thia-4,8-diaza-spiro[4.5]decan-3-one]
- binding to other receptors and enzymes [6]: no binding at all
- APPs secretion, fold over control (APPs secretion): 2.8 fold
- Ki [7]: 45.2 ± 10.8 µM
- IRWIN TEST, duration of signs ([2]; rat, 100 mg/kg, p.o.): duration 3-6 hrs.).
- IRWIN TEST, onset of signs ([2]; rat, 100 mg/kg, p.o.): reduced startle response (onset: 0.5 hr;
- IRWIN TEST, signs (carriage, apathy, corneal reflex, diarrhea, grooming, urination, salivation, lacrimation, locomotor activity, respiration, startle) ([2]; rat, 100 mg/kg, p.o.): 100 mg/kg: abnormalities of carriage,
- IRWIN TEST ([2]; rat, 1 & 10 mg/kg, p.o.): 1 & 10 no effect on gross behavior
- General Observation: Chromodacryorrhea, dose ([2]; rat, p.o.): Chromodacryorrhea: 100 mg/kg, p.o.
- General Observation: Convulsion, dose ([2]; rat, p.o.): Convulsion: 50 mg/kg, p.o.
- General Observation: Gnawing, dose ([2]; rat, p.o.): Gnawing; 50 mg/kg, p.o.
- General Observation: Hypothermia, dose ([2]; rat, p.o.): Hypothermia: 50 mg/kg, p.o.
- General Observation: Lacrimation, dose ([2]; rat, p.o.): Lacrimation: 50 mg/kg, p.o.
- General Observation: Mydriasis, dose ([2]; rat, p.o.): Mydriasis: 25 mg/kg, p.o.
- General Observation: Salivation, dose ([2]; rat, p.o.): Salivation: 40 mg/kg, p.o.
- General Observation: Sedation, dose ([2]; rat, p.o.): Sedation: 100 mg/kg, p.o.
- dose at which effects begin (salivation and lacrimation) ([2]; rats, po, first hour): about 40 mg/kg
- % of the compound in free base form [8]: 26.2%
- investigation time of the same juvenile (RID) [9]: decreased the investigation time
- neuroprotective potency against 200 μM NMDA, compared with 20 μM MK801 [10]: slightly less
- prevention of NMDA-induced cell death [10]: effective in prevention of cell death
- ECG (heart rate, P wave, P-Q, QRS, QT) ([11]; beagle dogs, oral, up to 13 weeks): no changes in the ECG
- dose at which (muscarinic) effects are seen ([11]; dog): > 9 mg/kg
- no-adverse-effect-level (NOAEL) ([11]; dog, po, up to 13 weeks): 6 to 9 mg/kg/day
- Trihexyphenidyl-rats-Passive avoidance, effect [3]: 0.5, 1, 5 positive effects
- Trihexyphenidyl-rats-Passive avoidance, MED [3]: MED 0.1-0.5 mg/kg, p.o.
- AUC(0-t) [5, 12]: 712 to 3947 ng·h/mL
- Cmax [5, 12]: 162 to 1352 ng/mL
- Tmax [5, 12]: 1.5 to 3 h
- plasma half life [5, 12]: 1 to 2 h
- MRT (area) ([5]; female dogs, 13 weeks): 3.6 to 5.2 h
- AUC(0-inf) [5, 13]: 1033 to 4164 ng·h/mL
- MRT (area) ([5]; female dogs, single dose (1×)): 4.7 to 5.3 h
- AUC(0-inf) [5, 14]: 985 to 3179 ng·h/mL
- MRT (area) ([5]; male dogs, 13 weeks): 3.0 to 4.2 h
- AUC(0-inf) [5, 15]: 1041 to 4471 ng·h/mL
- MRT (area) ([5]; male dogs, single dose (1×)): 3.8 to 5 h
- AUC(0-inf) [5, 16]: 800 to 3691 ng·h/mL
- PI turnover vs. CCh (as 100%) (rat M1 mAChR): PI, rat M1 mAChR: 75%

SMILES: CC1=NCC2(CCN(C)CC2)S1 [AF150(S), 2,8-Dimethyl-1-thia-3,8-diaza-spiro[4.5]dec-2-ene]
- APPs secretion, fold over control (APPs secretion): 2.8 fold
- investigation time of the same juvenile (RID) [9]: decreased the investigation time
- neuroprotective potency against 200 μM NMDA, compared with 20 μM MK801 [10]: slightly less
- prevention of NMDA-induced cell death [10]: effective in prevention of cell death
